Test results from patent publication US20090053722A1, “SDAD ASSAY AND USES THEREOF” (priority 2007, published 2009).
Several values for one entry are separate records, joined by “and”; a condition that tells them apart may be missing. Equal entries are not always repeated. Entries after “also recorded” stand apart in the source; their conditions may differ. Where two headings read alike, the source gives them in different places.

Tests used:
human sperm [1] = test system: human sperm
Protocol: (§1) Sperm were isolated from the seminal plasma as previously described in Brown et al., 1995. The sperm pellet was resuspended in phosphate buffered saline (PBS), pH=7.4, and divided into 4 aliquots. Each aliquot (equal sperm concentrations) was incubated at 37° C. in PBS with H2O2 concentrations of 0, 10, 50, and 100 μM for 15 min and 1 hr. All aliquots were divided into 2 portions. One portion was used to determine LPO. The remaining portion was centrifuged at 1500 g for 15 min. at room temperature, the sperm in the pellet resuspended and analyzed in the HSAA.

human sperm [2] = test system: human sperm; remark: listed apart in the source
Protocol: as §1
The HSAA was performed as described by Brown et al. 1995. Briefly, sperm are washed and permeabilized using lysolecithine.
(§2) In a micro-centrifuge tube, the reaction mix was prepared; 8 μl of sperm suspension (200,000 sperm) was added to 100 μLof frog egg extract that contained 8 μl of ^3H-TTP (8 μCi). At 5 and 15 min, and 2 and 3 hr incubation times in the egg extract, 5 μl aliquots were taken, wet mounts prepared, and phase contrast microscopy used to determine the percentage of sperm that were fully decondensed and recondensed, respectively, scoring 50 nuclei per slide. At the 5 and 15 min, and 2 and 3 hr time points, 25 μl aliquots of the reaction mix was removed and mixed with 75 μl PBS. Two 50 μl cytopreps were made for each aliquote as described by Brown et al., 1992. The dried cytopreps were fixed in one part acetic acid, and three parts cold methanol, and Giemsa stained for 1 hr followed by a 10 min wash in Giemsa buffer. Slides were examined using light microscopy and analyzed using Metamorph software. Autoradiography was performed using cytoprep slides as described by Brown et al. 1995.
Sperm chromatin decondensation and nuclear recondensation were evaluated in sperm exposed to increasing concentrations of H2O2 for 15 min and 1 hr using the HSAA. Sperm were analyzed at different incubation times in the egg extract using the image analysis Methamorph software system. The sperm nuclear activation was scored in 5 categories (FIG. 2): 1) full decondensation: sperm diameter 25-30 μm (FIG. 2C), 2) partial decondensation: sperm diameter <25 μm (FIG. 2B), 3) non-decondensed (FIG. 2A), 4) hyperdecondensed: sperm diameter >(25-30 μm) [FIGS. 2b and c], and 5) full recondensation (FIGS. 2D and E).

human sperm [3] = test system: human sperm; remark: listed apart in the source
Protocol: Thymidine incorporation into sperm was scored as follows: unlabeled (less than 5 black granules), medium label (from 5 to 25 black granules), and heavy label (more than 25 black granules). Each value is the mean±SD. […] (5a and 5b) ^3H-TTP incorporation after a 5 min incubation in the egg extract.
as §2
The DNA synthesis was determined by autoradiography as previously described in Materials and Methods.

sperm = conditions: comet assay; cited from earlier work
[4] = 10 μM H2O2, 15 min and 1 hr exposures, 5 min incubation in egg extract
[5] = 10 μM H2O2, 15 min and 1 hr exposures, 15 min incubation in egg extract
[6] = 50 μM H2O2, 15 min exposure, 2 and 3 hr incubation in egg extract (combined)
[7] = 50 μM H2O2, 15 min exposure, 5 min incubation in egg extract
[8] = 50 μM H2O2, 15 min exposure, 15 min incubation in egg extract
[9] = 50 μM H2O2, 1 hr exposure, 2 and 3 hr incubation in egg extract (combined)
[10] = 50 μM H2O2, 1 hr exposure, 5 min incubation in egg extract
[11] = 50 μM H2O2, 1 hr exposure, 15 min incubation in egg extract
[12] = 100 μM H2O2, 15 min and 1 hr exposures, 5 min incubation in egg extract
[13] = 100 μM H2O2, 15 min exposure, 2 and 3 hr incubation in egg extract (combined)
[14] = 100 μM H2O2, 15 min exposure, 5 min incubation in egg extract
[15] = 100 μM H2O2, 15 min exposure, 15 min incubation in egg extract
[16] = 100 μM H2O2, 1 hr exposure, 2 and 3 hr incubation in egg extract (combined)
[17] = 100 μM H2O2, 1 hr exposure, 5 min incubation in egg extract
[18] = 100 μM H2O2, 1 hr exposure, 15 min incubation in egg extract
[19] = 50 μM H2O2, 15 min exposure, 3 hr incubation in egg extract
[20] = 50 μM H2O2, 1 hr exposure, 2 hr incubation in egg extract
[21] = 50 μM H2O2, 1 hr exposure, 3 hr incubation in egg extract
[22] = 100 μM H2O2, 15 min exposure, 3 hr incubation in egg extract
[23] = 100 μM H2O2, 1 hr exposure, 2 hr incubation in egg extract
[24] = 100 μM H2O2, 1 hr exposure, 3 hr incubation in egg extract

For `OO` [H2O2, hydrogen peroxide], the “lipid peroxidation (MDA and hydroxyalkenals), means compared to the untreated control sperm” value (human sperm [1]; 10, 50 and 100 μM H2O2, 1 hr exposure) was “significantly different”, the “lipid peroxidation (MDA and hydroxyalkenals), means compared to the untreated control sperm” value (human sperm [1]; 50 and 100 μM H2O2, 15 min exposure) was “significantly different” and the recondensed sperm (human sperm [2]; 10 μM H2O2, 15 min and 1 hr exposure, 2 and 3 hr incubation in egg extract (combined)) was 98±2%. For the same compound, the partially decondensed sperm (human sperm [2]; [4]) was “Approximately 30%”, the recondensed sperm (human sperm [2]; [4]) was “No recondensed sperm were observed” and the “sperm showing no decondensation” value (human sperm [2]; [4]) was 35-40%. The fully decondensed sperm (human sperm [2]; [5]) was “Approximately 94%”, the fully decondensed sperm (human sperm [2]; 10 μM H2O2, 15 min exposure, 5 min incubation in egg extract) was “Approximately 28±4%” and the recondensed sperm (human sperm [2]; 10 μM H2O2, 15 min exposure, 15 min incubation in egg extract) was “No recondensed sperm were observed”. For the same compound, the fully decondensed sperm (human sperm [2]; 10 μM H2O2, 1 hr exposure, 5 min incubation in egg extract) was roughly 30±6%, the non-decondensed sperm (human sperm [2]; 10 μM H2O2, both time points (15 min and 1 hr exposure), 15 min incubation in egg extract) was “Approximately 5%” and the hyper-decondensed sperm (human sperm [2]; 10 μM H2O2, 2 and 3 hr incubation in egg extract (combined)) was “No sperm were hyper-decondensed”. The hyperdecondensed sperm (human sperm [2]; 10 μM H2O2, 5 min incubation in egg extract) was “No sperm were hyperdecondensed”, the hyperdecondensed sperm (human sperm [2]; 10 μM H2O2, 15 min incubation in egg extract) was “No sperm were hyperdecondensed” and the partially decondensed sperm (human sperm [2]; 50 μM H2O2, 15 min and 1 hr exposures, 5 min incubation in egg extract) was “Approximately 1%”. It also gave a hyper-decondensed sperm (human sperm [2]; [6]) of 35.2%, a recondensed sperm (human sperm [2]; [6]) of 66±2.3% and a fully decondensed sperm (human sperm [2]; [7]) of 43.3±3.7%. The hyperdecondensed sperm (human sperm [2]; [7]) was 38.4%, the non-decondensed sperm (human sperm [2]; [7]) was 15±3% and the recondensed sperm (human sperm [2]; [7]) was “No recondensed sperm were observed”. For the same compound, the fully decondensed sperm (human sperm [2]; [8]) was 53±3%, the hyperdecondensed sperm (human sperm [2]; [8]) was 45.2% and the recondensed sperm (human sperm [2]; [8]) was “No recondensed sperm were observed”. For the same compound, the hyper-decondensed sperm (human sperm [2]; [9]) was 30±2%, the recondensed sperm (human sperm [2]; [9]) was 70±3% and the fully decondensed sperm (human sperm [2]; [10]) was 46.6±6%. For the same compound, the hyperdecondensed sperm (human sperm [2]; [10]) was 31±−4% and 31±4%, the non-decondensed sperm (human sperm [2]; [10]) was 18±4% and the recondensed sperm (human sperm [2]; [10]) was 5±3%. It also gave a fully decondensed sperm (human sperm [2]; [11]) of 58±2%, a hyperdecondensed sperm (human sperm [2]; [11]) of 30±2% and a recondensed sperm (human sperm [2]; [11]) of 10±2%. The non-decondensed sperm (human sperm [2]; [12]) was 10±2%, the partially decondensed sperm (human sperm [2]; [12]) was “Approximately 1%” and the hyper-decondensed sperm (human sperm [2]; [13]) was 45±2%. For the same compound, the recondensed sperm (human sperm [2]; [13]) was 57±2%, the fully decondensed sperm (human sperm [2]; [14]) was 56.6±4.7% and the hyperdecondensed sperm (human sperm [2]; [14]) was 26%. It also gave a recondensed sperm (human sperm [2]; [14]) of 8±2%, a fully decondensed sperm (human sperm [2]; [15]) of 48±1.5% and a hyperdecondensed sperm (human sperm [2]; [15]) of 37%. For the same compound, the recondensed sperm (human sperm [2]; [15]) was 15±3%, the hyper-decondensed sperm (human sperm [2]; [16]) was 45±3% and the recondensed sperm (human sperm [2]; [16]) was 54±2%. For the same compound, the fully decondensed sperm (human sperm [2]; [17]) was 64.5±4.5%, the hyperdecondensed sperm (human sperm [2]; [17]) was 11±4% and the recondensed sperm (human sperm [2]; [17]) was 15±2%. The fully decondensed sperm (human sperm [2]; [18]) was 47±2%, the hyperdecondensed sperm (human sperm [2]; [18]) was 33±3.5% and the recondensed sperm (human sperm [2]; [18]) was 20±2%. For the same compound, the “sperm nuclei with abnormal recondensation and nuclear arrest in the hyperdecondensed state” value (human sperm [2]; 50 and 100 μM H2O2, 3 hr incubation in egg extract) was 33-42%, the non-decondensed sperm (human sperm [2]; any other H2O2 concentrations (50, 100 μM) at any of the time points, 15 min incubation in egg extract) was “no sperm were non-decondensed” and the 3H-TTP incorporation (human sperm [3]; 10 μM H2O2, 15 min and 1 hr exposure, 2 and 3 hr incubations in frog egg extract) was “normal ^3H-TTP incorporation”. The “sperm positive for 3H-TTP incorporation” value (human sperm [3]; [4]) was “No sperm were positive for ^3H-TTP incorporation; also recorded: no incorporation of ^3H-TTP”, the “sperm positive for 3H-TTP incorporation” value (human sperm [3]; [5]) was “No sperm were positive for ^3H-TTP incorporation; also recorded: no incorporation of ^3H-TTP” and the “sperm heavily labeled by 3H-TTP” value (human sperm [3]; 10 μM H2O2, 15 min and 1 hr exposures, 2 hr incubation in egg extract) was 99±1%. For the same compound, the “sperm heavily labeled by 3H-TTP” value (human sperm [3]; 10 μM H2O2, 15 min and 1 hr exposures, 3 hr incubation in egg extract) was 98±2%, the “sperm with medium 3H-TTP labeling” value (human sperm [3]; 50 μM H2O2, 15 min exposure (first of '50 and 100 μM for 15 min and 1 hr, respectively'), 2 hr incubation in egg extract) was “approximately 14.5±4%” and the “sperm heavily labeled by 3H-TTP” value (human sperm [3]; [7]) was 10±3.5%. The “sperm with medium 3H-TTP labeling” value (human sperm [3]; [7]) was 18±3.5%, the “sperm heavily labeled by 3H-TTP” value (human sperm [3]; [8]) was 10±2% and the “sperm with medium 3H-TTP labeling” value (human sperm [3]; [8]) was “approximately 20±3%”. For the same compound, the “sperm heavily labeled by 3H-TTP” value (human sperm [3]; 50 μM H2O2, 15 min exposure, 2 hr incubation in egg extract) was 85±5%, the “sperm heavily labeled by 3H-TTP” value (human sperm [3]; [19]) was “approximately 78±6%” and the “sperm with medium 3H-TTP labeling” value (human sperm [3]; [19]) was “approximately 16.5±2%”. The “sperm heavily labeled by 3H-TTP” value (human sperm [3]; [10]) was 28±2%, the “sperm with medium 3H-TTP labeling” value (human sperm [3]; [10]) was 36±3% and the “sperm heavily labeled by 3H-TTP” value (human sperm [3]; [11]) was 17.5±7.5%. The “sperm with medium 3H-TTP labeling” value (human sperm [3]; [11]) was “Approximately 21±5%”, the “sperm heavily labeled by 3H-TTP” value (human sperm [3]; [20]) was 56.5±3% and the “sperm with medium 3H-TTP labeling” value (human sperm [3]; [20]) was “Approximately 36±2%”. For the same compound, the “sperm heavily labeled by 3H-TTP” value (human sperm [3]; [21]) was “Approximately 75±3%”, the “sperm with medium 3H-TTP labeling” value (human sperm [3]; [21]) was “Approximately 25±3%” and the “sperm with medium 3H-TTP labeling” value (human sperm [3]; 100 μM H2O2 (second of '50 and 100 μM for 15 min and 1 hr, respectively'), 2 hr incubation in egg extract) was roughly 43.5±5%. The “sperm heavily labeled by 3H-TTP” value (human sperm [3]; [14]) was 15±5%, the “sperm with medium 3H-TTP labeling” value (human sperm [3]; [14]) was “Approximately 25±5%” and the “sperm heavily labeled by 3H-TTP” value (human sperm [3]; [15]) was 50±5%. For the same compound, the “sperm with medium 3H-TTP labeling” value (human sperm [3]; [15]) was roughly 30±10%, the “sperm heavily labeled by 3H-TTP” value (human sperm [3]; 100 μM H2O2, 15 min exposure, 2 hr incubation in egg extract) was “Approximately 64±2%” and the “sperm heavily labeled by 3H-TTP” value (human sperm [3]; [22]) was roughly 85±5%. The “sperm with medium 3H-TTP labeling” value (human sperm [3]; [22]) was roughly 14.5±3%, the “sperm heavily labeled by 3H-TTP” value (human sperm [3]; [17]) was 31±3% and the “sperm with medium 3H-TTP labeling” value (human sperm [3]; [17]) was roughly 48±2%. For the same compound, the “sperm heavily labeled by 3H-TTP” value (human sperm [3]; [18]) was 45±9%, the “sperm with medium 3H-TTP labeling” value (human sperm [3]; [18]) was roughly 37±9% and the “sperm heavily labeled by 3H-TTP” value (human sperm [3]; [23]) was roughly 71±3%. The “sperm with medium 3H-TTP labeling” value (human sperm [3]; [23]) was roughly 28.5±2.5%, the “sperm heavily labeled by 3H-TTP” value (human sperm [3]; [24]) was roughly 60±4% and the “sperm with medium 3H-TTP labeling” value (human sperm [3]; [24]) was roughly 40±4%. For the same compound, the “H2O2 concentration at which induction of DNA fragmentation was significant” value (sperm) was 200 µM.
